≈ marks a conversion by molar mass, not a printed value.
Assays:
[1] = BIRB 796 binding to cyclodextrin (binding isotherm from solubility data), SBECD; type: physicochemical
Method: (§1) The binding affinity for the BIRB 796 interaction with the ligands was evaluated in the following manner:
(§2) where Lt (ligand) is the total HPBCD or SBECD concentration, St is the solubility of BIRB 796 in the presence of ligand, So is the solubility in the absence of ligand, K11 is the binding constant for the 1:1 complex and K12 is the binding constant for the 1:2 complex. Upon rearrangement, these two equations simplify to the following linear equation: [formula]
(§3) A plot of [L]t vs. (StSo)/[Lt] yields the binding affinity according to the above equation.
(§4) FIG. 3 illustrates the binding analysis for the interaction between BIRB 796 and HPBCD at different concentrations. FIG. 4 illustrates the binding analysis for the interaction between BIRB 796 and SBECD at different concentrations. The binding constants were obtained through the slope and intercept values.

[2] = Effect of cyclodextrins on the aqueous solubility of BIRB 796; type: physicochemical; conditions: for solubility: aqueous
Method: Complexing cyclodextrin agents were evaluated as a means to improve the solubility of BIRB 796. The solubility of BIRB 796 was evaluated as a function of the concentrations of underivatized parent β-cyclodextrin (BCD), the alkylated derivatives […]. The results of Table 1 with respect to the solubility of BIRB 796 as a function of HPBCD concentration are illustrated in FIG. 1, and the results of Table 1 with respect to the solubitlity of BIRB 796 as a function of SBECD concentration are shown in FIG. 2.

[3] = BIRB 796 binding to cyclodextrin (binding isotherm from solubility data), HPBCD; type: physicochemical
Method: as §1, §2, §3, §4

[4] = Solubility and/or stability of BIRB 796 in pharmaceutically-acceptable solvents; type: physicochemical; conditions: 30% PEG 400, 40% PG/10% ethanol or aqueous buffer solutions at any pH
[5] = test system: proinflammatory cytokines, such as tumor necrosis factor (TNF) and interleukin-1 (IL-1); conditions: disclosed in PCT/US99/29165; cited from earlier work
[6] = Stability of BIRB 796 in PEG 400 as function of temperature, storage atmosphere and light exposure; type: physicochemical; conditions: for kobs / t90: PEG 400, C0 = 30 mg/mL; for half-life at 30 mg/mL: solution in PEG 400, PEG 400, C0 = 30 mg/mL
Method: The stability of BIRB 796 in PEG 400 was evaluated. An initial BIRB 796 concentration of approximately 30 mg/mL was prepared and the percent of BIRB 796 remaining in the PEG 400 solvent evaluated over an approximately two week time frame for differing conditions. The PEG 400-BIRB 796 mixture was kept under several different conditions: (1) at room temperature (about 23° C.) in ambient air in the dark; (2) at room temperature (about 23° C.) in ambient air in the light; (3) at 40° C. in ambient air; (4) at 40° C. in ambient air, the mixture being imbued with 0.1% sodium metabisulfite, an antioxidant; (5) at 60° C. in ambient air; (6) at 60° C. in an oxygen atmosphere; and (7) at 60° C. in a nitrogen atmosphere.
Rate constants were calculated using linear regression analysis of the data.

[7] = 40° C., 0.1% sodium metabisulfite

SMILES: Cc1ccc(-n2nc(C(C)(C)C)cc2NC(=O)Nc2ccc(OCCN3CCOCC3)c3ccccc23)cc1 [BIRB 796, 1-(5-tert-butyl-2-p-tolyl-2H-pyrazol-3-yl)-3-[4-(2-morpholin-4-yl-ethoxy)-naphthalen-1-yl]-urea]
- Binding Constants K1:1 ([1]; 1:1 complex with SBECD): 8337 M⁻¹
- Binding Constants K1.2 ([1]; 1:2 complex with SBECD): 29.1 M⁻¹
- binding affinity of SBECD for BIRB 796 compared with HPBCD ([1]; SBECD versus HPBCD, Table 2): approximately an order of magnitude higher binding affinity
- solubility ([2]; aqueous cyclodextrin solution, aqueous with cosolvent or surfactant or cyclodextrin, BCD 0.7 % w/v): 44 µg/mL (≈ 83.4 µM)
- solubility ([2]; aqueous cyclodextrin solution, aqueous with cosolvent or surfactant or cyclodextrin, BCD 1.4 % w/v): 74 µg/mL (≈ 140 µM)
- solubility ([2]; aqueous cyclodextrin solution, aqueous with cosolvent or surfactant or cyclodextrin, BCD 2 % w/v): 87 µg/mL (≈ 165 µM)
- solubility ([2]; aqueous cyclodextrin solution, aqueous with cosolvent or surfactant or cyclodextrin, HPBCD 1 % w/v): 24 µg/mL (≈ 45.5 µM)
- solubility ([2]; aqueous cyclodextrin solution, aqueous with cosolvent or surfactant or cyclodextrin, HPBCD 2.5 % w/v): 49 µg/mL (≈ 92.9 µM)
- solubility ([2]; aqueous cyclodextrin solution, aqueous with cosolvent or surfactant or cyclodextrin, HPBCD 5 % w/v): 137 µg/mL (≈ 260 µM)
- solubility ([2]; aqueous cyclodextrin solution, aqueous with cosolvent or surfactant or cyclodextrin, HPBCD 10 % w/v): 233 µg/mL (≈ 442 µM)
- solubility ([2]; aqueous cyclodextrin solution, aqueous with cosolvent or surfactant or cyclodextrin, HPBCD 25 % w/v): 1540 µg/mL (≈ 2910 µM)
- solubility ([2]; aqueous cyclodextrin solution, aqueous with cosolvent or surfactant or cyclodextrin, SBECD 1 % w/v): 21 µg/mL (≈ 39.8 µM)
- solubility ([2]; aqueous cyclodextrin solution, aqueous with cosolvent or surfactant or cyclodextrin, SBECD 2.5 % w/v): 85 µg/mL (≈ 161 µM)
- solubility ([2]; aqueous cyclodextrin solution, aqueous with cosolvent or surfactant or cyclodextrin, SBECD 5 % w/v): 156 µg/mL (≈ 296 µM)
- solubility ([2]; aqueous cyclodextrin solution, aqueous with cosolvent or surfactant or cyclodextrin, SBECD 10 % w/v): 371 µg/mL (≈ 703 µM)
- solubility ([2]; aqueous cyclodextrin solution, aqueous with cosolvent or surfactant or cyclodextrin, SBECD 25 % w/v): 2170 µg/mL (≈ 4120 µM)
- solubility ([2]; aqueous solution without cyclodextrin, SBECD 0 % w/v): 0.5 µg/mL (≈ 0.948 µM)
- solubility ([2]; aqueous solution without cyclodextrin, no cyclodextrin (0 % w/v)): 3.3 µg/mL (≈ 6.25 µM)
- BIRB 796 solubilized by SBECD, more than by HPBCD ([2]; highest cyclodextrin concentration evaluated (25% w/v)): approximately 40%
- Binding Constants K1:1 ([3]; 1:1 complex with HPBCD): 675 M⁻¹
- Binding Constants K1.2 ([3]; 1:2 complex with HPBCD): 17.5 M⁻¹
- solubility and/or stability [4]: can not achieve a desirable solubility and/or stability
- inhibitory activity with respect to proinflammatory cytokines [5]: unexpectedly significant inhibitory activity
- kobs ([6]; 23° C., air (dark)): -0.00253 day⁻¹
- t90 ([6]; 23° C., air (dark)): 41.5 days
- kobs ([6]; 23° C., air, light): -0.0078 day⁻¹
- t90 ([6]; 23° C., air, light): 13.5 days
- kobs [6, 7]: -0.0161 day⁻¹
- t90 [6, 7]: 6.52 days
- kobs ([6]; 40° C., air): -0.0192 day⁻¹
- t90 ([6]; 40° C., air): 5.47 days
- kobs ([6]; 60° C., N2): -0.0552 day⁻¹
- t90 ([6]; 60° C., N2): 1.90 days
- kobs ([6]; 60° C., O2): -0.0772 day⁻¹
- t90 ([6]; 60° C., O2): 1.36 days
- kobs ([6]; 60° C., air): -0.0587 day⁻¹
- t90 ([6]; 60° C., air): 1.79 days
- degradation rate under constant light relative to dark ([6]; PEG 400, room temperature (about 23° C.), ambient air): approximately three-times as fast
- decomposition in PEG 400 ([6]; over two weeks, 23° C.): significant decomposition was observed
- half-life at 30 mg/mL ([6]; 23° C., air (dark)): 274 days
- half-life at 30 mg/mL ([6]; 23° C., air, light): 88.8 days
- half-life at 30 mg/mL [6, 7]: 43 days
- half-life at 30 mg/mL ([6]; 40° C., air): 36.1 days
- half-life at 30 mg/mL ([6]; 60° C., N2): 12.6 days
- half-life at 30 mg/mL ([6]; 60° C., O2): 8.98 days
- half-life at 30 mg/mL ([6]; 60° C., air): 11.8 days
